Where a name gives a salt, the structure may show the parent alone. Read-outs that look alike come from different tables or passages of the source.
Experiments:
[1] = test system: Phosphorylated eIF4E; assay: peIF4E Signaling Cellular Assay (CisBio peIF4E HTRF); assay type: cell-based; details: cells incubated with compound for 2 hrs at 37° C.
Description: Phosphorylated eIF4E is assayed using the CisBio peIF4E HTRF® assay kit (CisBio, catalogue No. 64EF4PEG). Cells are plated in 96-well tissue-culture treated plate in appropriate growth medium (90 μL). Compounds (10×) are diluted using 3-fold serial dilutions in cell culture medium and added to cells. Plates are incubated for 2 hrs at 37° C. The cell supernatant is carefully removed either by aspirating supernatant or by flicking the plate. Immediately 50 μL of supplemented lysis buffer (IX) is added and incubated for at least 30 minutes at room temperature under shaking. After homogenization by pipetting up and down, 16 μL of cell lysate is transferred from the 96-well cell-culture plate to a 384-well small volume white plate, 4 μL of premixed antibody solutions (vol/vol) is prepared in the detection buffer and added. The plate is covered with a plate sealer and incubated overnight at room temperature. The fluorescence emissions at two different wavelengths are read (665 nm and 620 nm) on a Wallac Victor2. Emission ratios are converted into percent inhibitions and imported into GraphPad Prism software. […] IC50 values are determined using a nonlinear regression model available in GraphPad Prism 5.
To this end, IC50 values of less than 0.05 μM are labeled as “+++”, from 0.05 to 1.0 μM are labeled as “++”, greater than 1.0 to 100 μM are labeled as “+”, and NA means “not available”.

[2] = biological target: recombinant MNK2 (Homo sapiens (Human), UniProt Q9HBH9); assay: MNK Biochemical Enzymatic Assay (ADP-Glo kinase assay), MNK2
recombinant MNK2, sequence (Q9HBH9 whole entry): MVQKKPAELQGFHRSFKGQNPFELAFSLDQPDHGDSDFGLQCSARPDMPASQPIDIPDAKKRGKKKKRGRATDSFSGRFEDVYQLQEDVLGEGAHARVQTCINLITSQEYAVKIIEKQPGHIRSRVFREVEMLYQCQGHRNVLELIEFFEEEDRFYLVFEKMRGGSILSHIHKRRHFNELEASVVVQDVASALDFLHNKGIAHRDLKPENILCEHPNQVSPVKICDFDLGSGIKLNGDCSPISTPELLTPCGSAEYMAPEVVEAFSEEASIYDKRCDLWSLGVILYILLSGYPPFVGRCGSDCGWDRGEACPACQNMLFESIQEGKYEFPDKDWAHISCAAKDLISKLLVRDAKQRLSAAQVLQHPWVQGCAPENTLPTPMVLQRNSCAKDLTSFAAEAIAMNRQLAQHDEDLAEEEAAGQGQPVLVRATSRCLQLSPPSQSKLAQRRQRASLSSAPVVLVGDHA
Description: Compounds are screened for MNK inhibition using the ADP-Glo kinase assay kit (Promega, catalogue No. V9101). All kinase reactions are performed in Reaction Buffer E (15 mM HEPES pH7.4, 20 mM NaCl, 1 mM EGTA, 10 mM MgCl2, 0.1 mg/ml BGG, and 0.02% Tween-20). […] Final DMSO concentration in each reaction is 1%.
(§1) Kinase reactions are carried out in 96-well half-area white flat-bottom polystyrene plates in a final volume of 25 μl. MNK1/2 enzymes are pre-incubated with compound and peptide substrate for 5 minutes prior to the addition of ATP. After the addition of ATP, kinase reactions are incubated at room temperature for 40 minutes. Reactions are subsequently stopped by the addition of 25 μl of ADP-Glo Reagent and incubating for an additional 40 minutes. The final luminescent signal used for kinase activity readout is produced by the addition of 45 μl of Kinase Detection Reagent (ADP-Glo kit, Promega) and incubating for 40 minutes. The luminescent signal is detected using a Victor 2 multilabel counter (Perkin Elmer) and the concentration of compound necessary to achieve inhibition of enzyme activity by 50% (IC50) is calculated using signals from an 8-point compound dilution series.

[3] = biological target: recombinant MNK1 (Homo sapiens (Human), UniProt Q9BUB5); assay: MNK Biochemical Enzymatic Assay (ADP-Glo kinase assay), MNK1; details: 10 nM recombinant MNK1, 300 μM ATP
recombinant MNK1, sequence (Q9BUB5 whole entry): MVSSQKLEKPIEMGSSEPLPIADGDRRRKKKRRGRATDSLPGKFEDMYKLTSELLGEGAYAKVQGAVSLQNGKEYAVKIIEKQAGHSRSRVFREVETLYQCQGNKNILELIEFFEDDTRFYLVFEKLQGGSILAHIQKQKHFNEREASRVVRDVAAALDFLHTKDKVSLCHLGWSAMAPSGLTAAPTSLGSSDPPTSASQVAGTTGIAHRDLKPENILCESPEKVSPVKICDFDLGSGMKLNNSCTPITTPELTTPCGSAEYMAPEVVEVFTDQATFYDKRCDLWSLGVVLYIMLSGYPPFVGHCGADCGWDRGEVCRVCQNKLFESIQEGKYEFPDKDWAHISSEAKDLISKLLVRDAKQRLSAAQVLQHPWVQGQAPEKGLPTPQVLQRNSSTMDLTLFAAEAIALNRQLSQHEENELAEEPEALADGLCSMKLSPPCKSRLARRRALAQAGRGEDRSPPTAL
Description: Compounds are screened for MNK inhibition using the ADP-Glo kinase assay kit (Promega, catalogue No. V9101). All kinase reactions are performed in Reaction Buffer E (15 mM HEPES pH7.4, 20 mM NaCl, 1 mM EGTA, 10 mM MgCl2, 0.1 mg/ml BGG, and 0.02% Tween-20). Final MNK 1 reactions contained 10 nM recombinant MNK1 (Life Technologies, PR9138A), 100 μM MNK substrate peptide Ac-TATKSGSTTKNR-NH2 (American Peptide Company), 300 μM ATP, and varying concentrations of the inhibitory compound of interest. Final MNK2 reactions contained 3 nM recombinant MNK2 (Life Technologies, PV5607), 50 μM MNK substrate peptide Ac-TATKSGSTTKNR-NH2 (American Peptide Company), 10 μM ATP, and varying concentrations of the inhibitory compound of interest. Final DMSO concentration in each reaction is 1%.
as §1
To this end, IC50 values of less than 0.01 μM are labeled as “+++”, from 0.01 to 0.1 μM are labeled as “++”, and greater than 0.1 to 10.0 μM are labeled as “+” (NA means “not available”).

[4] = 3 nM recombinant MNK2, 10 μM ATP, read-out: IC50 Mnk2

## O=C1NCc2cc(-n3ccc4cncnc43)ccc21 [Cpd. No. 1, 5-(7H-pyrrolo[2,3-d]pyrimidin-7-yl)isoindolin-1-one]
[1]
  IC50: 1000 to 100000 nM
[2]
  IC50: 100 to 10000 nM
[3]
  IC50: 100 to 10000 nM

## CC1NC(=O)c2ccc(-n3ccc4cncnc43)cc21 (stereo not drawn) [Cpd. No. 2, 3-methyl-5-(7H-pyrrolo[2,3-d]pyrimidin-7-yl)isoindolin-1-one]
[2]
  IC50: 100 to 10000 nM

## CC1NC(=O)c2ccc(N3CCc4cncnc43)cc21 (stereo not drawn) [Cpd. No. 3, 3-methyl-5-(5H-pyrrolo[2,3-d]pyrimidin-7(6H)-yl)isoindolin-1-one]
[1]
  IC50: 1000 to 100000 nM
[2]
  IC50: 100 to 10000 nM

## O=C1NCc2cc(-n3ncc4cnccc43)ccc21 [Cpd. No. 4, 5-(1H-pyrazolo[4,3-c]pyridin-1-yl)isoindolin-1-one]
[2]
  IC50: 100 to 10000 nM

## O=C1NCc2nc(-n3ccc4cnccc43)ccc21 [Cpd. No. 5, 2-(1H-pyrrolo[3,2-c]pyridin-1-yl)-6,7-dihydro-5H-pyrrolo[3,4-b]pyridin-5-one]
[2]
  IC50: 100 to 10000 nM

## c1cc2cc(-n3ccc4cncnc43)ccc2cn1 [Cpd. No. 6, 6-(7H-pyrrolo[2,3-d]pyrimidin-7-yl)isoquinoline]
[1]
  IC50: 1000 to 100000 nM
[2]
  IC50: 100 to 10000 nM

## Cc1ncnc2c1ccn2-c1ccc2c(c1)CNC2=O [Cpd. No. 7, 5-(4-methyl-7H-pyrrolo[2,3-d]pyrimidin-7-yl) isoindolin-1-one]
[2]
  IC50: 100 to 10000 nM

## Cn1cc(-c2cn(-c3ccc4c(c3)CNC4=O)c3ncncc23)cn1 [Cpd. No. 8, 5-(5-(1-methyl-1H-pyrazol-4-yl)-7H-pyrrolo[2,3-d]pyrimidin-7-yl)isoindolin-1-one]
[1]
  IC50: 1000 to 100000 nM
[2]
  IC50: 10 to 100 nM
[3]
  IC50: 10 to 100 nM

## O=C1NCc2cc(-n3ccc4cnccc43)ncc21 [Cpd. No. 11, 6-(1H-pyrrolo[3,2-c]pyridin-1-yl)-1H-pyrrolo[3,4-c]pyridin-3(2H)-one]
[1]
  IC50: 1000 to 100000 nM
[2]
  IC50: 100 to 10000 nM

## Nc1ncnc2c1ccn2-c1ccc2c(c1)CNC2=O [Cpd. No. 12, 5-(4-amino-7H-pyrrolo [2,3-d]pyrimidin-7-yl) isoindolin-1-one]
[2]
  IC50: 100 to 10000 nM

## c1ncc2ccn(-c3ccc4c(c3)CSC4)c2n1 [Cpd. No. 13, 7-(1,3-dihydrobenzo[c]thiophen-5-yl)-7H-pyrrolo[2,3-d]pyrimidine]
[2]
  IC50: 100 to 10000 nM

## O=C1NCc2nc(-n3ccc4cnccc43)ncc21 [Cpd. No. 14, 2-(1H-pyrrolo[3,2-c]pyridin-1-yl)-6,7-dihydro-5H-pyrrolo[3,4-d]pyrimidin-5-one]
[2]
  IC50: 100 to 10000 nM

## O=C1NCc2cc(-n3cnc4cncnc43)ccc21 [Cpd. No. 16, 5-(9H-purin-9-yl) isoindolin-1-one]
[2]
  IC50: 100 to 10000 nM

## CC1NC(=O)c2c(Cl)cc(-n3ccc4cncnc43)cc21 (stereo not drawn) [Cpd. No. 17, 7-chloro-3-methyl-5-(7H-pyrrolo [2,3-d]pyrimidin-7-yl) isoindolin-1-one]
[1]
  IC50: 50 to 1000 nM
[2]
  IC50: 10 to 100 nM
[3]
  IC50: < 10 nM

## CC1(C)NC(=O)c2c(Cl)cc(-n3ccc4cncnc43)cc21 [Cpd. No. 18, 7-chloro-3,3-dimethyl-5-(7H-pyrrolo [2,3-d]pyrimidin-7-yl) isoindolin-1-one]
[1]
  IC50: 50 to 1000 nM
[2]; [4]
  IC50: < 10 nM
[3]
  IC50: < 10 nM

## O=C1NCc2cc(-n3cc(-c4ccncc4)c4cncnc43)ccc21 [Cpd. No. 19, 5-(5-(pyridin-4-yl)-7H-pyrrolo[2,3-d]pyrimidin-7-yl)isoindolin-1-one]
[2]
  IC50: 100 to 10000 nM

## COC(=O)NCC1NC(=O)c2ccc(-n3ccc4cncnc43)cc21 (stereo not drawn) [Cpd. No. 20, methyl ((3-oxo-6-(7H-pyrrolo[2,3-d]pyrimidin-7-yl)isoindolin-1-yl)methyl)carbamate]
[2]
  IC50: 100 to 10000 nM

## NCC1NC(=O)c2ccc(-n3ccc4cncnc43)cc21 (stereo not drawn) [Cpd. No. 21, 3-(aminomethyl)-5-(7H-pyrrolo[2,3-d]pyrimidin-7-yl)isoindolin-1-one hydrochloride]
[2]
  IC50: 100 to 10000 nM

## Cc1cc(-n2ccc3cncnc32)cc2c1C(=O)NC2C (stereo not drawn) [Cpd. No. 22, 3,7-dimethyl-5-(7H-pyrrolo[2,3-d]pyrimidin-7-yl)isoindolin-1-one]
[1]
  IC50: 1000 to 100000 nM
[2]
  IC50: 10 to 100 nM
[3]
  IC50: 10 to 100 nM

## O=C1NCc2cc(-n3ccc4cncnc43)cc(F)c21 [Cpd. No. 23, 7-fluoro-5-(7H-pyrrolo [2,3-d]pyrimidin-7-yl) isoindolin-1-one]
[2]
  IC50: 100 to 10000 nM

## O=C1NCc2cc(-n3cc(-c4ccccc4Cl)c4cncnc43)ccc21 [Cpd. No. 24, 5-(5-(2-chlorophenyl)-7H-pyrrolo [2,3-d]pyrimidin-7-yl) isoindolin-1-one]
[2]
  IC50: 100 to 10000 nM

## O=C1NCc2cc(-n3cc(-c4cscn4)c4cncnc43)ccc21 [Cpd. No. 25, 5-(5-(thiazol-4-yl)-7H-pyrrolo[2,3-d]pyrimidin-7-yl)isoindolin-1-one]
[2]
  IC50: 100 to 10000 nM

## N#Cc1ccccc1-c1cn(-c2ccc3c(c2)CNC3=O)c2ncncc12 [Cpd. No. 26, 2-(7-(1-oxoisoindolin-5-yl)-7H-pyrrolo[2,3-d]pyrimidin-5-yl)benzonitrile]
[2]
  IC50: 100 to 10000 nM

## O=C1NC2(CCCC2)c2cc(-n3ccc4cncnc43)cc(Cl)c21 [Cpd. No. 27, 4′-chloro-6′-(7H-pyrrolo[2,3-d]pyrimidin-7-yl)spiro[cyclopentane-1,1′-isoindolin]-3′-one]
[1]
  IC50: 50 to 1000 nM
[2]; [4]
  IC50: < 10 nM

## Nc1ncnc2c1ccn2-c1cc(Cl)c2c(c1)C1(CCCCC1)NC2=O [Cpd. No. 28, 6′-(4-amino-7H-pyrrolo[2,3-d]pyrimidin-7-yl)-4′-chlorospiro[cyclohexane-1,1′-isoindolin]-3′-one]
[1]
  IC50: < 50 nM
[2]; [4]
  IC50: < 10 nM

## O=C1NC2(CCCCC2)c2cc(-n3ccc4cncnc43)cc(Cl)c21 [Cpd. No. 29, 4′-chloro-6′-(7H-pyrrolo[2,3-d]pyrimidin-7-yl)spiro[cyclohexane-1,1′-isoindolin]-3′-one]
[1]
  IC50: < 50 nM
[2]
  IC50: 10 to 100 nM

## Nc1ncnc2c1ccn2-c1cc(Cl)c2c(c1)C1(CCCC1)NC2=O [Cpd. No. 30, 6′-(4-amino-7H-pyrrolo[2,3-d]pyrimidin-7-yl)-4′-chlorospiro[cyclopentane-1,1′-isoindolin]-3′-one]
[1]
  IC50: < 50 nM
[2]; [4]
  IC50: < 10 nM

## Cc1cc(-n2ccc3c(N)ncnc32)cc2c1C(=O)NC21CCN(C)CC1 [Cpd. No. 31, 6-(4-amino-7H-pyrrolo [2,3-d]pyrimidin-7-yl)-1′,4-dimethylspiro[isoindoline-1,4′-piperidin]-3-one]
[1]
  IC50: 50 to 1000 nM

## O=C1NCc2nc(-n3ccc4cncnc43)ccc21 [Cpd. No. 32, 2-(7H-pyrrolo[2,3-d]pyrimidin-7-yl)-6,7-dihydro-5H-pyrrolo[3,4-b]pyridin-5-one]
[1]
  IC50: 50 to 1000 nM

## Cc1cc(-n2ccc3c(N)ncnc32)cc2c1C(=O)NC21CCN(CC(F)F)CC1 [Cpd. No. 33, 6-(4-amino-7H-pyrrolo[2,3-d]pyrimidin-7-yl)-1′-(2,2-difluoroethyl)-4-methylspiro[isoindoline-1,4′-piperidin]-3-one]
[1]
  IC50: 50 to 1000 nM

## Cc1cc(-n2ccc3c(N)ncnc32)nc2c1C(=O)NC21CCCCC1 [Cpd. No. 34, 2′-(4-amino-7H-pyrrolo[2,3-d]pyrimidin-7-yl)-4′-methylspiro[cyclohexane-1,7′-pyrrolo[3,4-b]pyridin]-5′(6′H)-one]
[1]
  IC50: < 50 nM

Source: patent US11014926B2, “Pyrrolo-, pyrazolo-, imidazo-pyrimidine and pyridine compounds that inhibit MNK1 and MNK2” (EFFECTOR THERAPEUTICS, INC., priority 2015, dated 2021)
